Results: ChEMBL document CHEMBL2380302, “Synthesis of 3-O-propargylated betulinic acid and its 1,2,3-triazoles as potential apoptotic agents” (Eur J Med Chem, 2013)

Legend:
DU-145 [1] = assay: Cytotoxicity against human DU145 cells after 48 hrs by SRB assay; type: functional, cell-based; conditions: DU-145, 48 h
PC-3 [2] = assay: Cytotoxicity against human PC3 cells at 10 uM after 48 hrs by SRB assay; type: functional; conditions: PC-3, 48 h, read-out: GI
SF-295 [3] = assay: Cytotoxicity against human SF295 cells at 50 uM after 48 hrs by SRB assay; type: functional; conditions: SF-295, 48 h, read-out: GI
MCF7 [4] = assay: Cytotoxicity against human MCF7 cells at 10 uM after 48 hrs by SRB assay; type: functional; conditions: MCF7, 48 h, read-out: GI
DU-145 [5] = assay: Cytotoxicity against human DU145 cells at 50 uM after 48 hrs by SRB assay; type: functional; conditions: DU-145, 48 h, read-out: GI
SF-295 [6] = assay: Cytotoxicity against human SF295 cells at 30 uM after 48 hrs by SRB assay; type: functional; conditions: SF-295, 48 h, read-out: GI
A549 [7] = assay: Cytotoxicity against human A549 cells at 10 uM after 48 hrs by SRB assay; type: functional; conditions: A549, 48 h, read-out: GI
HCT-15 [8] = assay: Cytotoxicity against human HCT15 cells at 10 uM after 48 hrs by SRB assay; type: functional; conditions: HCT-15, 48 h, read-out: GI
HEp-2 [9] = assay: Cytotoxicity against human Hep2 cells at 30 uM after 48 hrs by SRB assay; type: functional; conditions: HEp-2, 48 h, read-out: GI
THP-1 [10] = assay: Cytotoxicity against human THP1 cells at 50 uM after 48 hrs by SRB assay; type: functional; conditions: THP-1, 48 h, read-out: GI
HEp-2 [11] = assay: Cytotoxicity against human Hep2 cells after 48 hrs by SRB assay; type: functional, cell-based; conditions: HEp-2, 48 h
DU-145 [12] = assay: Cytotoxicity against human DU145 cells at 10 uM after 48 hrs by SRB assay; type: functional; conditions: DU-145, 48 h, read-out: GI
HL-60 [13] = assay: Cytotoxicity against human HL60 cells after 48 hrs by SRB assay; type: functional, cell-based; conditions: HL-60, 48 h
HCT-15 [14] = assay: Cytotoxicity against human HCT15 cells at 30 uM after 48 hrs by SRB assay; type: functional; conditions: HCT-15, 48 h, read-out: GI
MCF7 [15] = assay: Cytotoxicity against human MCF7 cells at 30 uM after 48 hrs by SRB assay; type: functional; conditions: MCF7, 48 h, read-out: GI
HL-60 [16] = assay: Cytotoxicity against human HL60 cells at 30 uM after 48 hrs by SRB assay; type: functional; conditions: HL-60, 48 h, read-out: GI
PC-3 [17] = assay: Cytotoxicity against human PC3 cells at 50 uM after 48 hrs by SRB assay; type: functional; conditions: PC-3, 48 h, read-out: GI
HL-60 [18] = assay: Cytotoxicity against human HL60 cells at 50 uM after 48 hrs by SRB assay; type: functional; conditions: HL-60, 48 h, read-out: GI
HCT-15 [19] = assay: Cytotoxicity against human HCT15 cells at 50 uM after 48 hrs by SRB assay; type: functional; conditions: HCT-15, 48 h, read-out: GI
A549 [20] = assay: Cytotoxicity against human A549 cells at 50 uM after 48 hrs by SRB assay; type: functional; conditions: A549, 48 h, read-out: GI
THP-1 [21] = assay: Cytotoxicity against human THP1 cells after 48 hrs by SRB assay; type: functional, cell-based; conditions: THP-1, 48 h
THP-1 [22] = assay: Cytotoxicity against human THP1 cells at 10 uM after 48 hrs by SRB assay; type: functional; conditions: THP-1, 48 h, read-out: GI
PC-3 [23] = assay: Cytotoxicity against human PC3 cells at 30 uM after 48 hrs by SRB assay; type: functional; conditions: PC-3, 48 h, read-out: GI
HEp-2 [24] = assay: Cytotoxicity against human Hep2 cells at 50 uM after 48 hrs by SRB assay; type: functional; conditions: HEp-2, 48 h, read-out: GI
SF-295 [25] = assay: Cytotoxicity against human SF295 cells at 10 uM after 48 hrs by SRB assay; type: functional; conditions: SF-295, 48 h, read-out: GI
THP-1 [26] = assay: Cytotoxicity against human THP1 cells at 30 uM after 48 hrs by SRB assay; type: functional; conditions: THP-1, 48 h, read-out: GI
HCT-15 [27] = assay: Cytotoxicity against human HCT15 cells after 48 hrs by SRB assay; type: functional, cell-based; conditions: HCT-15, 48 h
DU-145 [28] = assay: Cytotoxicity against human DU145 cells at 30 uM after 48 hrs by SRB assay; type: functional; conditions: DU-145, 48 h, read-out: GI
MCF7 [29] = assay: Cytotoxicity against human MCF7 cells after 48 hrs by SRB assay; type: functional, cell-based; conditions: MCF7, 48 h
A549 [30] = assay: Cytotoxicity against human A549 cells at 30 uM after 48 hrs by SRB assay; type: functional; conditions: A549, 48 h, read-out: GI
A549 [31] = assay: Cytotoxicity against human A549 cells after 48 hrs by SRB assay; type: functional, cell-based; conditions: A549, 48 h
PC-3 [32] = assay: Cytotoxicity against human PC3 cells after 48 hrs by SRB assay; type: functional, cell-based; conditions: PC-3, 48 h
HL-60 [33] = assay: Cytotoxicity against human HL60 cells at 10 uM after 48 hrs by SRB assay; type: functional; conditions: HL-60, 48 h, read-out: GI
MCF7 [34] = assay: Cytotoxicity against human MCF7 cells at 50 uM after 48 hrs by SRB assay; type: functional; conditions: MCF7, 48 h, read-out: GI
SF-295 [35] = assay: Cytotoxicity against human SF295 cells after 48 hrs by SRB assay; type: functional, cell-based; conditions: SF-295, 48 h
HEp-2 [36] = assay: Cytotoxicity against human Hep2 cells at 10 uM after 48 hrs by SRB assay; type: functional; conditions: HEp-2, 48 h, read-out: GI

C=C(C)[C@@H]1CC[C@]2(C(=O)O)CC[C@]3(C)[C@H](CC[C@@H]4[C@@]5(C)CC[C@H](OCc6cn(-c7cc(I)ccc7C)nn6)C(C)(C)[C@@H]5CC[C@]43C)[C@@H]12
IC50 (DU-145 [1]): 39 µM
inhibition of growth at 10 µM (PC-3 [2]): 5%
inhibition of growth at 50 µM (SF-295 [3]): 35%
inhibition of growth at 10 µM (MCF7 [4]): 30%
inhibition of growth at 50 µM (DU-145 [5]): 65%
inhibition of growth at 30 µM (SF-295 [6]): 20%
inhibition of growth at 10 µM (A549 [7]): 43%
inhibition of growth at 10 µM (HCT-15 [8]): 9%
inhibition of growth at 30 µM (HEp-2 [9]): 14%
inhibition of growth at 50 µM (THP-1 [10]): 96%
IC50 (HEp-2 [11]): > 50 µM
inhibition of growth at 10 µM (DU-145 [12]): 24%
IC50 (HL-60 [13]): 18 µM
inhibition of growth at 30 µM (HCT-15 [14]): 25%
inhibition of growth at 30 µM (MCF7 [15]): 54%
inhibition of growth at 30 µM (HL-60 [16]): 60%
inhibition of growth at 50 µM (PC-3 [17]): 4%
inhibition of growth at 50 µM (HL-60 [18]): 97%
inhibition of growth at 50 µM (HCT-15 [19]): 34%
inhibition of growth at 50 µM (A549 [20]): 67%
IC50 (THP-1 [21]): 22 µM
inhibition of growth at 10 µM (THP-1 [22]): 38%
inhibition of growth at 30 µM (PC-3 [23]): 22%
inhibition of growth at 50 µM (HEp-2 [24]): 25%
inhibition of growth at 10 µM (SF-295 [25]): 8%
inhibition of growth at 30 µM (THP-1 [26]): 56%
IC50 (HCT-15 [27]): > 50 µM
inhibition of growth at 30 µM (DU-145 [28]): 41%
IC50 (MCF7 [29]): 27 µM
inhibition of growth at 30 µM (A549 [30]): 53%
IC50 (A549 [31]): 23 µM
IC50 (PC-3 [32]): > 50 µM
inhibition of growth at 10 µM (HL-60 [33]): 40%
inhibition of growth at 50 µM (MCF7 [34]): 74%
IC50 (SF-295 [35]): > 50 µM
inhibition of growth at 10 µM (HEp-2 [36]): 7%
